According to PubChem BioAssay (NCI):
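96-well plates; 48 h exposure; 5 concentrations. Endpoints by linear interpolation between flanking doses. Not reached: highest tested concentration assigned. TGI: concentration producing complete growth inhibition.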

Key:
Experiment in all cases: inhibition of tumour cell growth, NCI panel, 48 h
NCI-H460 lung = tested on: NCI-H460 lung
IGROV1 ovarian = tested on: IGROV1 ovarian
RXF 393 renal = tested on: RXF 393 renal
SK-MEL-5 melanoma = tested on: SK-MEL-5 melanoma
NCI-H522 lung = tested on: NCI-H522 lung
UACC-257 melanoma = tested on: UACC-257 melanoma
A549 NSCLC = tested on: A549 NSCLC
EKVX NSCLC = tested on: EKVX NSCLC
OVCAR-8 ovarian = tested on: OVCAR-8 ovarian
OVCAR-5 ovarian = tested on: OVCAR-5 ovarian
MALME-3M melanoma = tested on: MALME-3M melanoma
HCT-15 colon = tested on: HCT-15 colon
RPMI-8226 leukemia = tested on: RPMI-8226 leukemia
UO-31 renal = tested on: UO-31 renal
DU-145 prostate = tested on: DU-145 prostate
SW-620 colon = tested on: SW-620 colon
CCRF-CEM leukemia = tested on: CCRF-CEM leukemia
K-562 leukemia = tested on: K-562 leukemia
SK-MEL-2 melanoma = tested on: SK-MEL-2 melanoma
BT-549 breast = tested on: BT-549 breast
T-47D breast = tested on: T-47D breast
UACC-62 melanoma = tested on: UACC-62 melanoma
SF-295 CNS = tested on: SF-295 CNS
SK-OV-3 ovarian = tested on: SK-OV-3 ovarian
SK-MEL-28 melanoma = tested on: SK-MEL-28 melanoma
PC-3 prostate = tested on: PC-3 prostate
SN12C renal = tested on: SN12C renal
M14 melanoma = tested on: M14 melanoma
OVCAR-3 ovarian = tested on: OVCAR-3 ovarian
MOLT-4 leukemia = tested on: MOLT-4 leukemia
HCC-2998 colon = tested on: HCC-2998 colon
TK-10 renal = tested on: TK-10 renal
MDA-N = tested on: MDA-N
HCT-116 colon = tested on: HCT-116 colon
OVCAR-4 ovarian = tested on: OVCAR-4 ovarian
NCI-H23 lung = tested on: NCI-H23 lung
MCF7 breast = tested on: MCF7 breast
U251 CNS = tested on: U251 CNS
NCI-H226 lung = tested on: NCI-H226 lung
A498 renal = tested on: A498 renal
ACHN renal = tested on: ACHN renal
HOP-92 NSCLC = tested on: HOP-92 NSCLC
NCI/ADR-RES ovarian = tested on: NCI/ADR-RES ovarian
HL-60(TB) leukemia = tested on: HL-60(TB) leukemia
KM12 colon = tested on: KM12 colon
SF-268 CNS = tested on: SF-268 CNS
MDA-MB-435 = tested on: MDA-MB-435
SR leukemia = tested on: SR leukemia
MDA-MB-231 breast = tested on: MDA-MB-231 breast
HOP-62 NSCLC = tested on: HOP-62 NSCLC
CAKI-1 renal = tested on: CAKI-1 renal
LOX IMVI melanoma = tested on: LOX IMVI melanoma
HS 578T breast = tested on: HS 578T breast
COLO 205 colon = tested on: COLO 205 colon
SNB-19 CNS = tested on: SNB-19 CNS
786-0 renal = tested on: 786-0 renal
SF-539 CNS = tested on: SF-539 CNS
HT29 colon = tested on: HT29 colon
SNB-75 CNS = tested on: SNB-75 CNS

## C=C[C@@]1(C)CC2(C=C(CO)C(O)O2)Oc2c1c(=O)oc1cccc(C)c21 (stereo partly drawn)
NCI-H460 lung
  TGI: 45.2 µM
IGROV1 ovarian
  TGI: 18.4 µM
RXF 393 renal
  TGI: 8.86 µM
SK-MEL-5 melanoma
  TGI: 25.3 µM
NCI-H522 lung
  TGI: 4.82 µM
UACC-257 melanoma
  TGI: 35 µM
A549 NSCLC
  TGI: 68.7 µM
EKVX NSCLC
  TGI: 35.2 µM
OVCAR-8 ovarian
  TGI: 9.72 µM
OVCAR-5 ovarian
  TGI: 36 µM
MALME-3M melanoma
  TGI: 26.7 µM
HCT-15 colon
  TGI: 7.17 µM
RPMI-8226 leukemia
  TGI: 3.82 µM
UO-31 renal
  TGI: 19 µM
DU-145 prostate
  TGI: 29.1 µM
SW-620 colon
  TGI: 3.74 µM
CCRF-CEM leukemia
  TGI: 7.98 µM
K-562 leukemia
  TGI: 7.46 µM
SK-MEL-2 melanoma
  TGI: 21.7 µM
BT-549 breast
  TGI: 14.2 µM
T-47D breast
  TGI: 44.6 µM
UACC-62 melanoma
  TGI: 23.1 µM
SF-295 CNS
  TGI: > 75.1 µM
SK-OV-3 ovarian
  TGI: 47.3 µM
SK-MEL-28 melanoma
  TGI: 25.5 µM
PC-3 prostate
  TGI: 32.7 µM
SN12C renal
  TGI: 15.9 µM
M14 melanoma
  TGI: 12.1 µM
OVCAR-3 ovarian
  TGI: 9.66 µM
MOLT-4 leukemia
  TGI: 5.78 µM
HCC-2998 colon
  TGI: 40.1 µM
TK-10 renal
  TGI: 43.5 µM
MDA-N
  TGI: 15.2 µM
HCT-116 colon
  TGI: 3.65 µM
OVCAR-4 ovarian
  TGI: 12.8 µM
NCI-H23 lung
  TGI: 21.3 µM
MCF7 breast
  TGI: 25.1 µM
U251 CNS
  TGI: 25.6 µM
NCI-H226 lung
  TGI: 35.5 µM
A498 renal
  TGI: 51.8 µM
ACHN renal
  TGI: 21.2 µM
HOP-92 NSCLC
  TGI: 40.2 µM
NCI/ADR-RES ovarian
  TGI: 10.2 µM
HL-60(TB) leukemia
  TGI: 5.12 µM
KM12 colon
  TGI: 33.9 µM
SF-268 CNS
  TGI: 12.2 µM
MDA-MB-435
  TGI: 10.3 µM
SR leukemia
  TGI: 7.75 µM
MDA-MB-231 breast
  TGI: 23.9 µM
HOP-62 NSCLC
  TGI: 33.8 µM
CAKI-1 renal
  TGI: 15.6 µM
LOX IMVI melanoma
  TGI: 13.7 µM
HS 578T breast
  TGI: 42.9 µM
COLO 205 colon
  TGI: 26.9 µM
SNB-19 CNS
  TGI: 33.2 µM
786-0 renal
  TGI: 3.8 µM
SF-539 CNS
  TGI: 12 µM
HT29 colon
  TGI: 21.9 µM
SNB-75 CNS
  TGI: 28.8 µM

## CC(C)(C)c1cc(C(C)(C)C)c2c(c1O)OC(=O)CS2
NCI-H460 lung
  TGI: 9.13 µM
IGROV1 ovarian
  TGI: > 60.2 µM
RXF 393 renal
  TGI: 13.7 µM
SK-MEL-5 melanoma
  TGI: 9.77 µM
NCI-H522 lung
  TGI: 14.3 µM
UACC-257 melanoma
  TGI: > 66.7 µM
A549 NSCLC
  TGI: > 68.2 µM
EKVX NSCLC
  TGI: 25.6 µM
OVCAR-8 ovarian
  TGI: > 78 µM
OVCAR-5 ovarian
  TGI: 41 µM
MALME-3M melanoma
  TGI: > 93.7 µM
HCT-15 colon
  TGI: 14.9 µM
RPMI-8226 leukemia
  TGI: > 100 µM
UO-31 renal
  TGI: 20.5 µM
DU-145 prostate
  TGI: 51.6 µM
SW-620 colon
  TGI: 37.7 µM
CCRF-CEM leukemia
  TGI: > 25.3 µM
K-562 leukemia
  TGI: 40.6 µM
SK-MEL-2 melanoma
  TGI: 28.1 µM
BT-549 breast
  TGI: 23.9 µM
T-47D breast
  TGI: 22.9 µM
UACC-62 melanoma
  TGI: 5.11 µM
SF-295 CNS
  TGI: 18.8 µM
SK-OV-3 ovarian
  TGI: > 95.1 µM
SK-MEL-28 melanoma
  TGI: > 54.5 µM
PC-3 prostate
  TGI: > 64.7 µM
SN12C renal
  TGI: 21.8 µM
M14 melanoma
  TGI: 41.2 µM
OVCAR-3 ovarian
  TGI: 18.1 µM
MOLT-4 leukemia
  TGI: > 45.8 µM
HCC-2998 colon
  TGI: 14 µM
TK-10 renal
  TGI: 21.7 µM
MDA-N
  TGI: 14.8 µM
HCT-116 colon
  TGI: 13.4 µM
OVCAR-4 ovarian
  TGI: > 74.6 µM
NCI-H23 lung
  TGI: 18.1 µM
MCF7 breast
  TGI: > 31.2 µM
U251 CNS
  TGI: 17.9 µM
NCI-H226 lung
  TGI: 26.3 µM
A498 renal
  TGI: 66.9 µM
ACHN renal
  TGI: > 41 µM
HOP-92 NSCLC
  TGI: > 47.7 µM
NCI/ADR-RES ovarian
  TGI: 20.6 µM
HL-60(TB) leukemia
  TGI: 10.7 µM
KM12 colon
  TGI: 17.8 µM
SF-268 CNS
  TGI: 23.2 µM
MDA-MB-435
  TGI: 20.1 µM
SR leukemia
  TGI: > 48.7 µM
MDA-MB-231 breast
  TGI: 52.4 µM
HOP-62 NSCLC
  TGI: 32.6 µM
CAKI-1 renal
  TGI: > 62.7 µM
LOX IMVI melanoma
  TGI: 24 µM
HS 578T breast
  TGI: 20 µM
COLO 205 colon
  TGI: 9.89 µM
SNB-19 CNS
  TGI: 21.5 µM
786-0 renal
  TGI: 28.5 µM
SF-539 CNS
  TGI: 12.5 µM
HT29 colon
  TGI: 21.5 µM
SNB-75 CNS
  TGI: 6.84 µM
